Experiments:
[1] = test system: yeast strain YZGA515; test: Yeast spotting assay for RAD toxicity; assay type: cell-based, Saccharomyces cerevisiae; conditions: multiple-ABC-transporter-deficient yeast strain, SC-LEU plates with 40 mg/L RAD
From the text: (§1) Previously, we had shown that AtUGT73C6, when expressed in a multiple-ABC-transporter–deficient yeast strain, leads to the production of ZEN-14-glucoside [old nomenclature ZEN-4-glucoside, [Metzler (2011)]] after ZEN treatment ([Poppenberger et al., 2006]). […] We therefore generated RAD-glucoside for in vitro tests. […] Therefore, we were unable to determine at which position RAD was glucosylated.
Spotting of YZGA515 transformants (three serial 10^−1 dilutions) expressing either AtUGT73C6 (upper row) or containing the empty vector.

[2] = Solubility and handling stability observations; assay type: physicochemical
From the text: as §1

[3] = target: TaHSP90-2 (Triticum aestivum, UniProt A0ACM8QAI9); test: biochemical; conditions: for ATPase inhibition of TaHSP90-2: Figure 4B-D; for remaining activity at 100 µM: read-out: remaining (residual) ATPase activity of TaHSP90-2
From the text: (§2) For initial experiments, we expressed and purified the Saccharomyces cerevisiae ScHsp82 protein. The HSP82 coding region was amplified using the primer pair HSP82-1fwd (5’-[…]-3’) and HSP82-2rev (5’-[…]-3’), which contain BamHI and HindIII sites (underlined), respectively. The resulting 2,156 bp fragment was digested with BamHI and HindIII and ligated into the expression vector pQE-80L (Qiagen) cleaved with the same enzymes yielding plasmid pGW870. The coding region of AtHSP90.1 (At5g52640) was amplified from cDNA with the oligonucleotide primers 5’-[…]-3’ and 5’-[…]-3’. The resulting PCR product was digested with NdeI and SpeI (restriction sites on primers underlined) and introduced to pQE-80L (Qiagen), cleaved with the same enzymes to obtain the construct pQE80:AtHSP90.1. The cDNA of wheat HSP90 gene TaHSP90-2 (Triticum aestivum; DQ665784.1) was amplified with 5’-[…]-3’ and 5’-[…]-3’ (NdeI and SpeI, respectively) and introduced to pQE-80L. All constructs were verified by sequencing.
(§3) Protein production was induced by isopropyl β-D-1-thiogalactopyranoside (IPTG) following the supplier’s instructions. Protein purification was performed on an Äkta system (GE Healthcare, Uppsala, Sweden). […] Further purification was done by anion exchange chromatography on a 1 ml Resource Q column (GE Healthcare). Proteins were bound to the column in 25 mM Tris/Cl pH 7.5 and eluted with a linear gradient of 0–1 M NaCl in 15 column volumes. The obtained fractions were desalted using a Sephadex™ G-25 fine column, and the purified recombinant proteins were stored in the final elution buffer (25 mM Tris/Cl pH 7.5) at 4°C.
(§4) The ATPase activities of recombinant proteins AtHSP90.1, TaHSP90-2, and ScHsp82 were assayed following the method of [Rowlands et al. (2004)] using an ATP concentration of 1 mM. The effect of several potential inhibitors was tested in 96-well plates using toxin concentrations ranging from 1 to 150 µM. All compounds were dissolved in 20% DMSO and further diluted. The assays were performed in a total volume of 25 µl with a final protein concentration of 0.2 µg/µl and 4% DMSO. Controls were incubated with the solvent DMSO without inhibitor. The reactions were incubated at 37°C for 3 h in the dark. After this time, the released inorganic phosphate was quantified with the malachite green colorimetric assay ([Rowlands et al., 2004]). The reaction was stopped by adding 10 µl of 34% sodium citrate to each well after 20 min incubation at room temperature, and the absorbance was measured at 620 nm.
To test whether the yeast model reflects the situation in dicot and monocots plants, AtHSP90.1 and an HSP90 protein from wheat were expressed and purified. The wheat cDNA previously named “TaHSP90-2” corresponds to UniProtKB Q0Q0I7 (Q0Q0I7_WHEAT). This gene belongs to a family of nine highly similar cytosolic HSP90 proteins of wheat, has been named HSP90.3-D1 in a functional study ([Wang et al., 2011]), and is located on chromosome 5D (= EnsemblPlants Traes_5DL_89CF7F5DE).

[4] = target: T1, AtHSP90.1 (Arabidopsis thaliana, UniProt P27323); test: HSP90 ATPase activity assay (malachite green), AtHSP90.1; assay type: biochemical
T1 construct: The coding region of AtHSP90.1 (At5g52640) was amplified from cDNA; 6xHis; made in house; host or cells: Escherichia coli BL21 (DE3) or phosphatase-deficient strain K894
From the text: as §2, §3
The ATPase activities of recombinant proteins AtHSP90.1, TaHSP90-2, and ScHsp82 were assayed following the method of [Rowlands et al. (2004)] using an ATP concentration of 1 mM. […] After this time, the released inorganic phosphate was quantified with the malachite green colorimetric assay ([Rowlands et al., 2004]). The reaction was stopped by adding 10 µl of 34% sodium citrate to each well after 20 min incubation at room temperature, and the absorbance was measured at 620 nm. […]

[5] = test system: AtHSP90.1; set-up: method as in Werner, 2005; conditions: 50 µM, 2 h, vs DMSO; ref Werner, 2005; cited from earlier work
[6] = test system: AtHSP90.1; test: Quantitative real-time PCR of AtHSP90.1 in seedlings; assay type: cell-based, Arabidopsis thaliana; conditions: 50 µM, 2 h, vs mock control DMSO, reference gene AT5G46630
Method: A. thaliana (ecotype Columbia, Col-0) seeds were surface-sterilized using sodium hypochlorite (2%) plus 0.01% Triton X for 10 min and rinsed twice with sterile water. Seeds were distributed in 24-well plates (4 wells per treatment, 30–40 seeds per well) and re-suspended in 1 ml (per well) of liquid Murashige and Skoog medium (“MS” basal salt mixture, Sigma) supplemented with 1% sucrose. After 2 days of stratification at 4°C, the plates were transferred to a growth chamber at 21°C under a 16 h light/8 h dark photoperiod.
Total RNA was extracted from 13-day-old A. thaliana (Col-0) seedlings grown in liquid MS medium supplemented with 2.5% sucrose and 50 μM ZEN for 2 h. […] RNA was quantified with the Qubit (Invitrogen) and NanoDrop (Peqlab) systems. […] Absolute and relative expression were calculated with a dilution series of purified AtHSP90.1 and AP2M PCR fragments of known molar concentration in each RT-qPCR run. […] Each sample was measured in triplicate from four independent cDNAs. […]
Figure 2 Transcriptional response of Arabidopsis thaliana HSP90 genes to zearalenone (ZEN). […] (B) Quantitative real-time PCR of A. thaliana HSP90.1 after 2 h treatment with ZEN (50 µM) or DMSO. The results are expressed as relative expression to the reference gene ADAPTOR PROTEIN-2 MU-ADAPTIN (AP2M; AT5G46630) and represent the means of four biological replicates ± standard deviation.

[7] = target: T2, ScHsp82p (Saccharomyces cerevisiae, UniProt P02829); test: biochemical; assay type: biochemical; conditions: for remaining ATPase activity of ScHsp82p: at 100 µM, relative to DMSO control
T2 construct: The HSP82 coding region was amplified using the primer pair HSP82-1fwd; 6xHis (N); made in house; host or cells: Escherichia coli BL21 (DE3) or phosphatase-deficient strain K894
From the text: as §2, with “The resulting 2,156 bp fragment was digested with BamHI and HindIII and ligated into the expression vector pQE-80L (Qiagen) cleaved with the same enzymes yielding plasmid pGW870.” left out
as §3
All compounds were dissolved in 20% DMSO and further diluted. The assays were performed in a total volume of 25 µl with a final protein concentration of 0.2 µg/µl and 4% DMSO. Controls were incubated with the solvent DMSO without inhibitor. The reactions were incubated at 37°C for 3 h in the dark.

[8] = test system: Arabidopsis thaliana plants containing RPS2; set-up: method as in Takahashi et al., 2003; conditions: 10 μM; ref Takahashi et al., 2003; cited from earlier work
[9] = Stability of glucosides under ATPase assay conditions (LC-MS/MS before and after incubation); assay type: physicochemical; conditions: LC-MS/MS before and after incubation period, p = 0.21
Method: as §4
Likewise, we found all glucosides of ZEN, αZEL, and βZEL stable under identical conditions, with recoveries of > 88%, p > 0.05, in each case.

Sequence of TaHSP90-2 (A0ACM8QAI9 1-700): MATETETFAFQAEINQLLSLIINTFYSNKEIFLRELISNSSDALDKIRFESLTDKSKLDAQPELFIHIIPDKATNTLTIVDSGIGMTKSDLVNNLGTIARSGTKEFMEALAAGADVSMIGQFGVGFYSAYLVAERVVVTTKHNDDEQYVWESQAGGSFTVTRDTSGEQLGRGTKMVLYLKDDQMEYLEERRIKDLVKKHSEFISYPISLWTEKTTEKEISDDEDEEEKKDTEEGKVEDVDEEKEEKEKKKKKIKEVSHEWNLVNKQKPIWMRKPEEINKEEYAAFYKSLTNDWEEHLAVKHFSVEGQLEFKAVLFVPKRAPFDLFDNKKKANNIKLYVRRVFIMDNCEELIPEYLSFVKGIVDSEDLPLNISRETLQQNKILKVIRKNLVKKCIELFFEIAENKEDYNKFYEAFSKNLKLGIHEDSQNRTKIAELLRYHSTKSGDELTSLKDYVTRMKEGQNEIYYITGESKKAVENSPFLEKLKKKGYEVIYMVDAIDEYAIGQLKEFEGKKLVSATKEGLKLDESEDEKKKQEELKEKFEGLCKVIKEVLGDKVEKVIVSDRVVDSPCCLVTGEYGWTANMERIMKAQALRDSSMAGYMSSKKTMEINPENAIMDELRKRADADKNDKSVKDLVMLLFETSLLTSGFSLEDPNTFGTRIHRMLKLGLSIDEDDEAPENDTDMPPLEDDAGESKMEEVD
T1 sequence (P27323 whole entry): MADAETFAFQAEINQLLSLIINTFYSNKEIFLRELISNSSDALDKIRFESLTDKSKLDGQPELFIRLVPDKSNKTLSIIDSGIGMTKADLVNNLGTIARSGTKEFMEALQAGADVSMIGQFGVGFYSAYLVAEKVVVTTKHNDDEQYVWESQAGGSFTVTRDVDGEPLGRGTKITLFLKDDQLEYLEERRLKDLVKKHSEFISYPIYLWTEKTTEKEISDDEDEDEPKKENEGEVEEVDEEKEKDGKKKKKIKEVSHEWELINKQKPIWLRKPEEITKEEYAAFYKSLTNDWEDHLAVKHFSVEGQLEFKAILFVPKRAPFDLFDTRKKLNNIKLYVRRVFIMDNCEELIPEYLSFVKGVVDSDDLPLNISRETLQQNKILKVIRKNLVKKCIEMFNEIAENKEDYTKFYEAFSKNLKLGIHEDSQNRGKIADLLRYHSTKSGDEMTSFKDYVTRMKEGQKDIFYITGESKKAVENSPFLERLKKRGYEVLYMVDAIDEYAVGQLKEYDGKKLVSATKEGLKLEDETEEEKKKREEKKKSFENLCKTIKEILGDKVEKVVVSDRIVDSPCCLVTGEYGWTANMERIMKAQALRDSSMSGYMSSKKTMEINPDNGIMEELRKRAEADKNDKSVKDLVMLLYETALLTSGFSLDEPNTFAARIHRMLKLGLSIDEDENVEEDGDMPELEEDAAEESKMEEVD
T2 sequence (P02829 whole entry): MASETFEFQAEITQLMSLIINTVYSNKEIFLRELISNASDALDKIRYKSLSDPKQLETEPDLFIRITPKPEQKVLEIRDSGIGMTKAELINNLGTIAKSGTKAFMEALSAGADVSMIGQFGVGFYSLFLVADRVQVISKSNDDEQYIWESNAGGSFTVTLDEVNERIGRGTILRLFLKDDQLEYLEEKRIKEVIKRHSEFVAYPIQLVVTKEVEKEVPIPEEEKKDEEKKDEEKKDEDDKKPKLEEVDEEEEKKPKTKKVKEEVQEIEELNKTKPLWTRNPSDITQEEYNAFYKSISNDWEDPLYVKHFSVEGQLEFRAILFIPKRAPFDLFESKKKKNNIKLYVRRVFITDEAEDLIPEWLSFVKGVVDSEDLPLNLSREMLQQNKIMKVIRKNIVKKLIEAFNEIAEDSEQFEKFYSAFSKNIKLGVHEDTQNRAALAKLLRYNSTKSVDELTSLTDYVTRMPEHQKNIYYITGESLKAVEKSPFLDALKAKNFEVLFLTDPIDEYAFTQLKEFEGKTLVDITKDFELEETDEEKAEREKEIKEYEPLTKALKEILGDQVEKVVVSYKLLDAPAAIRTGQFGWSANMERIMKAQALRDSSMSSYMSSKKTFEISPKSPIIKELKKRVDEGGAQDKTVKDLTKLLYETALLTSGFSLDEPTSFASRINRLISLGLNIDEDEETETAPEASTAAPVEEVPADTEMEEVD

C[C@@H]1C[C@H]2O[C@@H]2/C=C\C=C\C(=O)Cc2c(Cl)c(O)cc(O)c2C(=O)O1 [RAD, radicicol, reference compound]
toxicity to yeast strain [1]: toxic | solubility in medium ([2]; yeast culture medium): limited solubility

C[C@H]1CCCC(=O)CCC/C=C/c2cc(O[C@@H]3O[C@H](CO)[C@@H](O)[C@H](O)[C@H]3O)cc(O)c2C(=O)O1 [ZEN14G, zearalenone-14-O-ß-D-glucopyranoside]
ATPase inhibition of TaHSP90-2 [3]: did not cause activity reduction | ATPase inhibition of AtHSP90.1 ([4]; 100 µM, p = 0.75): inactive

C[C@H]1CCCC(=O)CCC/C=C/c2cc(O)cc(O[C@@H]3O[C@H](CO)[C@@H](O)[C@H](O)[C@H]3O)c2C(=O)O1 [ZEN16G, zearalenone-16-O-ß-D-glucopyranoside]
ATPase inhibition of TaHSP90-2 [3]: did not cause activity reduction

C[C@H]1CCCC(=O)CCC/C=C/c2cc(O)cc(O)c2C(=O)O1 [ZEN, zearalenone]
IC50 [3]: 20 µM | remaining activity at 100 µM [3]: 12 ± 5% | IC50 [4]: ~10 µM | remaining ATPase activity of AtHSP90.1 ([4]; at 100 µM): 18 ± 6% | induction of AtHSP90.1 (microarray) [5]: about 3.7 fold | induction of AtHSP90.1 (quantitative real-time PCR) [6]: 35 fold | remaining ATPase activity of ScHsp82p [7]: 59 ± 5%

COC1=C2C[C@@H](C)C[C@H](OC)[C@H](O)[C@@H](C)/C=C(\C)[C@H](OC(N)=O)[C@@H](OC)/C=C\C=C(/C)C(=O)NC(=CC1=O)C2=O [geldanamycin]
hypersensitive response triggered by Pseudomonas syringae DC3000 (avrRpt2) [8]: diminished

C[C@H]1CCC[C@@H](O)CCC/C=C/c2cc(O)cc(O)c2C(=O)O1 [ßZEL, ß-zearalenol]
IC50 [3]: ~10 µM | remaining activity at 100 µM [3]: 0.7 ± 3.3% | remaining ATPase activity of ScHsp82p [7]: 8.6 ± 2.4% | IC50 ([7]; recombinant 6xHis ScHsp82p, 1 mM ATP, 37°C, 3 h, read-out: IC50, ATPase inhibition of ScHsp82p): ~15 µM

C[C@H]1CCC[C@H](O)CCC/C=C/c2cc(O)cc(O)c2C(=O)O1 [αZEL, α-zearalenol]
remaining activity at 100 µM [3]: 71 ± 6% | ATPase inhibition of ScHsp82p ([7]; toxin concentrations 1 to 150 µM): did not elicit a detectable response

radicicol-glucoside [RAD-glucoside]
change in concentration under assay conditions [9]: no significant | stability on handling ([2]; particularly when brought to dryness): appears unstable

From article PMC6813925, “Zearalenone and ß-Zearalenol But Not Their Glucosides Inhibit Heat Shock Protein 90 ATPase Activity” (Frontiers in Pharmacology, 2019)
